The results in this text go back to PMC12880737 (Journal of medicinal chemistry, 2025).

For assay [1], the target named is T1, GAS41 YEATS domain (Homo sapiens, UniProt O95619). The assay is described as follows: Fluorescence polarization competition assay with H3K23crK27cr-FAM probe. Type of assay: binding.
Target sequence in this assay (O95619 1-148): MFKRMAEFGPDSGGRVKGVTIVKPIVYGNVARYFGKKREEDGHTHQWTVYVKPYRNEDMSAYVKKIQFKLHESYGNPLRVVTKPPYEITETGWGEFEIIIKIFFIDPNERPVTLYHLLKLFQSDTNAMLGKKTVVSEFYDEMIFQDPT
The target of assay [2] is his6-GAS41 YEATS (13-158) (Homo sapiens, UniProt O95619). The assay is described as follows: AlphaLISA competition assay with 21-biot probe.
In assay [3] the target is NanoLuc-tagged BRD4-BD1 and Halo-tagged histone H3.3 (Homo sapiens, UniProt O60885). The assay is described as follows: BRD4-BD1 NanoBRET assay. Type of assay: cell-based. The conditions noted are these: Figure S3.
The subject of another assay is H1299 cells. Nature of the assay: Wound healing assay. The class given is cell-based. The following applies: H1299, 24 h.
For assay [4], the target named is NanoLUC-GAS41 and Halo-H3.3 (Homo sapiens, UniProt O95619). Nature of the assay: GAS41 NanoBRET assay in HEK293T cells. Type of assay: cell-based.
A further assay relates to CDKN1A. The assay is described as follows: CDKN1A gene expression by RT-qPCR in H1299 cells. The class given is cell-based. The following applies: 7 days.
Assay [5] has as its target T1, GAS41 YEATS domain. Nature of the assay: 1H-15N HSQC NMR binding experiments. The following applies: 50 μM 15N GAS41 YEATS, 100 μM compound.
Target sequence in this assay (O95619 18-190): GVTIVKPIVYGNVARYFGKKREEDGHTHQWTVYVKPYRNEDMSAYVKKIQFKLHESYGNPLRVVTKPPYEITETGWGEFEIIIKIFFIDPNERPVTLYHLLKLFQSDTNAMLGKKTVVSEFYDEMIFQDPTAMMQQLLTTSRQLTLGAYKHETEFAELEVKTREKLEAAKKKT

A value given as a limit tells only on which side of the number the result lay.

Chain of his6-GAS41 YEATS (13-158) (O95619 13-158): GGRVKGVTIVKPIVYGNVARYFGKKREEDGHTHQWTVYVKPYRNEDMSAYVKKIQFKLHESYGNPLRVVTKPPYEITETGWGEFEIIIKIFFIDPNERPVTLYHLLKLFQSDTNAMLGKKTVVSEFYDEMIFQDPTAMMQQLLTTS
Chain of NanoLUC-GAS41 and Halo-H3.3 (O95619 whole entry): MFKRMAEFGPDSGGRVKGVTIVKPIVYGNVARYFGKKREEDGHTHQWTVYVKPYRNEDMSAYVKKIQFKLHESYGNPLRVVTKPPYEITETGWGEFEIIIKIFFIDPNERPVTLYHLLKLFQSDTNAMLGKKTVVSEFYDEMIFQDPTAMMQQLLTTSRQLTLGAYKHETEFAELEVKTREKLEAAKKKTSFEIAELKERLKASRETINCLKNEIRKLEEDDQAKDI

As for `O=C(NCc1ccc(-c2cnc(C3CN(C(=O)c4ccc(NC(=O)[C@@H]5CCCN5)s4)C3)s2)cc1)C1CCCC1` [Compound 30, (S)-N-(5-(3-(5-(4-(cyclopentanecarboxamidomethyl)phenyl)thiazol-2-yl)azetidine-1-carbonyl)thiophen-2-yl)pyrrolidine-2-carboxamide], the figures for the concentration for half-maximal inhibition (IC50) (at GAS41 YEATS domain [1]; in assay [2]) were 1300 ± 400 nM and 600 ± 80 nM, respectively.

Regarding `O=C(NCc1ccc(-c2cnc(C3CN(C(=O)c4ccc(NC(=O)[C@@H]5CCCN5)s4)C3)s2)cc1)c1ccccc1` [Compound 31, (S)-N-(5-(3-(5-(4-(benzamidomethyl)phenyl)thiazol-2-yl)azetidine-1-carbonyl)thiophen-2-yl)pyrrolidine-2-carboxamide], the IC50 at GAS41 YEATS domain [1] came to 1100 ± 10 nM; in assay [2] it was 200 ± 80 nM.

Turning to `CC(=O)NCc1ccc(-c2cnc(C3CN(C(=O)c4ccc(NC(=O)[C@@H]5CCCN5)s4)C3)s2)c(Cl)c1` [Compound 35, (S)-N-(5-(3-(5-(4-(acetamidomethyl)-2-chlorophenyl)thiazol-2-yl)azetidine-1-carbonyl)thiophen-2-yl)pyrrolidine-2-carboxamide], the IC50 at GAS41 YEATS domain [1] stood at 3400 ± 130 nM; in assay [2] it was 1400 ± 330 nM.

As to `CCC(=O)NCc1ccc(-c2cnc(C3CN(C(=O)c4ccc(NC(=O)[C@@H]5CC(C)(C)CN5)s4)C3)s2)c2ccccc12` [Compound 39, (S)-4,4-dimethyl-N-(5-(3-(5-(4-(propionamidomethyl)naphthalen-1-yl)thiazol-2-yl)azetidine-1-carbonyl)thiophen-2-yl)pyrrolidine-2-carboxamide], the “activity in BRD4-BD1 NanoBRET assay” value in assay [3] is listed as “no activity”. The scratch healing entry in the assay on H1299 cells is “slowed scratch healing”.

On to `CCC(=O)NCc1ccc(-c2cnc(C3CN(C(=O)c4cnc(NC(=O)[C@@H]5CC(C)(C)CN5)s4)C3)s2)c2ccccc12` [Compound 40, (S)-4,4-dimethyl-N-(5-(3-(5-(4-(propionamidomethyl)naphthalen-1-yl)thiazol-2-yl)azetidine-1-carbonyl)thiazol-2-yl)pyrrolidine-2-carboxamide], for which the IC50 in assay [4] was over 25 µM; on GAS41 YEATS domain [1], 118000 ± 7700 nM; in assay [2] it was over 50000 nM. Also, in the assay on CDKN1A, the “levels of CDKN1A” value is “but not DLG-41nc strongly enhanced levels of CDKN1A”. Moreover, the “amide perturbations in 1H-15N HSQC NMR” value on GAS41 YEATS domain [5] is “no perturbations”.

On to `Cc1sc2c(c1C)C(c1ccc(Cl)cc1)=N[C@@H](CC(=O)OC(C)(C)C)c1nnc(C)n1-2` [JQ1, reference compound], for which the “activity in GAS41 BRET assay” value in assay [4] (Figure S3) is “no activity”.
